Data from US11833128B2, “Ketone carbonyl-containing hydrophobic antitumor drug and conjugate thereof as well as nano preparation containing conjugate, preparation method therefor, and application thereof” (Jiangsu Jibeier Pharmaceutical Co. Ltd., priority 2018, dated 2023).

Tests used:
[1] = tested on: Hela tumor; assay: Effects of the pH-responsive nano preparations on tumor in vivo (Hela tumor-bearing mice); details: tail vein, once every seven days x3; for relative tumor inhibition rate: 30th day from the last administration
Method: Hela tumor-bearing mice were divided into four groups with five mice in each group. The first, second, and third groups were the treatment groups, in which tumor treatment was carried out by respectively injecting the drug via the tail vein of each Hela tumor-bearing mouse. […] The fourth group was the blank control group.
The mice in the first, second and third groups were treated by administering drugs once every seven days for a total of three injections. Each tumor-bearing mouse in each group was labeled, and the body weight and the tumor volume thereof throughout the treatment process were recorded. The tumor volume was calculated according to the following formula: V (mm^3)=½×length (mm)×width (mm)^2.
Moreover, the relative tumor inhibition rate was also calculated and analyzed.

[2] = tested on: human lung cancer A549 xenograft; assay: Tumor inhibitory effect of DTX-AI in nude mice bearing human lung cancer A549 xenograft; details: iv x 4 (qw); for Animal body weight (g) (After tumor removal): Day 43; for Tumor inhibition rate %: Day 43 (21st day from the last administration);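 for all read-outs here: mice implanted subcutaneously with A549 tumor fragments, grouped 14 days later at mean tumor volume near 210–250 mm^3, grouping set as Day 0, animals sacrificed on Day 43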
Description: A well-grown A549 lung cancer solid tumor was taken and cut into uniform small masses having a size of about 3 mm under sterile conditions. Each mouse was inoculated subcutaneously under the right armpit with one mass by using a trocar. 14 days after inoculation, the average tumor volume was about 210 to 250 mm^3. The mice were grouped according to the tumor sizes, and the average tumor volume of each group was basically the same. […] The long diameters (a) and the short diameters (b) of the tumors were measured with an electronic digital caliper twice a week. The calculation formula of tumor volume (TV) was: TV=½×a×b^2. The calculation formula of the relative tumor volume (RTV) was: RTV=Vt/V0, wherein V0 was the tumor volume measured at the time of grouping (namely, d0), and Vt was the tumor volume at each measurement. […] On Day 43 (56 days after inoculation), the animals were sacrificed and dissected, the tumors were incised and weighed, and the body weights of the animals after tumor removal were calculated.

CC(=O)OC12COC1CC(O)C1(C)C(=O)C(OC(=O)Nc3ccc(C(C)=O)cc3)C3=C(C)C(OC(=O)C(O)C(NC(=O)OC(C)(C)C)c4ccccc4)CC(O)(C(OC(=O)c4ccccc4)C21)C3(C)C (stereo not shown) [DTX-AI]
relative tumor volume after 21 days (after the administration was stopped) (FIG. 5) ([1]; 40 mg DTX/kg): still showed a decreasing trend with time
tumor sizes after the completion of the treatment (photograph, FIG. 7) ([1]; 40 mg DTX/kg): significantly smaller than those of the first group and the blank control group
relative tumor inhibition rate ([1]; 40 mg DTX/kg): 93.5%
body weights of the mice over treatment time (FIG. 4) ([1]; 40 mg DTX/kg, compared with blank control group): basically the same as those in the blank control group
RTV (Day 43) ([2]; 20 mg/kg): 6.62 ± 2.10
body weights of the animals after administering (FIG. 9), in words ([2]; 20 mg/kg): basically not affected
Animal body weight (g) (After tumor removal) ([2]; 20 mg/kg): 25.52 ± 0.99 g
Tumor inhibition rate % ([2]; 20 mg/kg): 62.38%
tumor rebound after drug withdrawal ([2]; 40 mg/kg, 60 mg/kg and 80 mg/kg groups): no tumor rebound occurred
RTV (Day 43) ([2]; 40 mg/kg): 0.13 ± 0.03
body weights of the animals after administering (FIG. 9), in words ([2]; 40 mg/kg): slightly reduced
Animal body weight (g) (After tumor removal) ([2]; 40 mg/kg): 24.07 ± 1.19 g
Tumor inhibition rate % ([2]; 40 mg/kg): 99.28%
RTV (Day 43) ([2]; 60 mg/kg): 0.09 ± 0.02
body weights of the animals after administering (FIG. 9), in words ([2]; 60 mg/kg): slightly reduced
Animal body weight (g) (After tumor removal) ([2]; 60 mg/kg): 24.24 ± 1.43 g
Tumor inhibition rate % ([2]; 60 mg/kg): 99.50%
RTV (Day 43) ([2]; 80 mg/kg): 0.13 ± 0.05
body weights of the animals after administering (FIG. 9), in words ([2]; 80 mg/kg): reduced
Animal body weight (g) (After tumor removal) ([2]; 80 mg/kg): 20.99 ± 2.86 g
Tumor inhibition rate % ([2]; 80 mg/kg): 99.27%
death of animals ([2]; 4 dose groups (20, 40, 60, 80 mg/kg)): No death occurred

CC(=O)O[C@@]12CO[C@@H]1C[C@H](O)[C@@]1(C)C(=O)[C@H](O)C3=C(C)[C@@H](OC(=O)[C@H](O)[C@@H](NC(=O)OC(C)(C)C)c4ccccc4)C[C@@](O)([C@@H](OC(=O)c4ccccc4)[C@H]21)C3(C)C [Docetaxel, docetaxel, reference compound]
relative tumor volume after 21 days (after the administration was stopped) (FIG. 5) ([1]; 25 mg DTX/kg): continued to increase with time
relative tumor inhibition rate ([1]; 25 mg DTX/kg): 67.62%
RTV (Day 43) ([2]; 20 mg/kg): 2.73 ± 1.36
body weights of the animals after administering (FIG. 9), in words ([2]; 20 mg/kg): reduced
death of animals ([2]; 20 mg/kg): no death
Animal body weight (g) (After tumor removal) ([2]; 20 mg/kg): 25.35 ± 1.15 g
Tumor inhibition rate % ([2]; 20 mg/kg): 84.50%
RTV (Day 43) ([2]; 40 mg/kg): 0.13 ± 0.02
body weights of the animals after administering (FIG. 9), in words ([2]; 40 mg/kg): severely reduced
Animal body weight (g) (After tumor removal) ([2]; 40 mg/kg): 18.71 ± 2.78 g
Tumor inhibition rate % ([2]; 40 mg/kg): 99.24%
death of animals (number of animals died) ([2]; 40 mg/kg, died on Day 33): 1 animal
